Source: patent US12186365B2, “Composition for regulating cell division comprising FCHO1 modulator, and method for regulating cell division using same” (SEOUL NATIONAL UNIVERSITY R&DB FOUNDATION, priority 2015, dated 2025)
Marks after values point to notes of the source that are not given here. Each block holds one molecule with its values, some of them ahead of it. Ends that are not written are not given here. Peptide text beside a SMILES is read from it. * marks the point of attachment. Cbz = O=C(OCc1ccccc1)*

Columns and labels:
[1] = system: cells; assay: Real-time cell growth measurement using Xcelligence; format: cell-based; details: peptides treated in 10 μM, FIG. 30
Experimental: Cell viability was measured using Xcelligence for in real time observation, and the peptides were treated in 10 μM. […] The results are illustrated in FIG. 30.

[2] = system: FCHo1 cleavage; assay: Immunoblot of FCHo1 cleavage in A549 cell extract with or without MG132; format: cell-based, human; details: 1 μM MG132, 16 hours, A549 cells
Experimental: The cells were dissolved in IP dissolution buffer for 30 min at 4° C. After centrifugation at 17,000×g for 30 minutes, the concentration of the protein was measured, and the same amount of lysate was used for immunoprecipitation. The immunoprecipitation was carried out overnight at 4° C. using anti-FLAG M^2 affinity gel (Sigma-Aldrich). The precipitate was washed three times with washing solution, and the precipitated proteins were separated using SDS-PAGE. Western blotting was carried out using anti-rabbit antibodies conjugated with specific antibodies and secondary anti-mouse IgG Veriblot or horseradish peroxidase. The results were visualized using a chemiluminescence detector (Atto Ez-Capture MG).
To test the potential involvement of specific proteases to cleave FCHo1, the cells were treated with 1 μM MG132, a protease inhibitor for 16 hours. Immunoblotting of the A549 cell extract was performed in the presence or absence of the MG132 protease inhibitor, and the results are illustrated in FIG. 5.

[3] = system: cells; assay: Intracellular uptake of biotin-conjugated peptides (streptavidin-488, CLSM); format: cell-based; details: biotin-conjugated peptide, no carrier or CPP, FIG. 29
Experimental: Biotin-conjugated peptides were treated to cells and fixed on the cells, followed by reaction with streptavidin-488 fluorescent dye, followed by observation with CLSM. The results are illustrated in FIG. 29.

[4] = molecular target: T1, Akt1 (Homo sapiens, UniProt P31749); assay: In vitro binding of biotin-conjugated FCHo1-derived peptides to Akt1 (streptavidin plate, cell lysates, Akt1 antibody); details: biotin-conjugated peptide on streptavidin plate, FIG. 28
T1 construct: After treating with the cell lysates; endogenous in cells
Text: To confirm the binding affinity between Akt1 and Akt1 motif-containing FCHo1 amino acid sequence-derived peptides, biotin was conjugated to peptides to complete the synthetization. The peptides were reacted and attached to on the streptavidin-attached plate. After treating with the cell lysates, the binding affinity of the peptide and Akt1 was confirmed by the Akt1 antibody. The experiment process and its result of confirming in vitro binding affinity of Akt1 according to respective peptides derived from FCHo1 binding sites are illustrated in FIG. 28.

[5] = system: mouse FCHo1; assay: FCHo1 inhibitory effect of shRNA sequences acting on mouse FCHo1; details: among four shRNA sequences, SEQ ID NOs: 1 to 4
Experimental: (§1) H&E slides were prepared to confirm whether adenoma and hyperplasia were reduced. The shFCHo1 was used for FCHo1 cleavage inhibition. The sequence thereof is represented in SEQ ID NOs: 1 to 4 based on FIG. 26. […] Therefore, this was used to perform this experiment.

[6] = system: lung cancer model mouse (K-ras); assay: Anticancer effect of aerosol-delivered lentiviral FCHo1 vectors in lung cancer model mouse; format: in vivo; details: K-ras female mice, lentiviral vector inhaled 8 times for 4 weeks, H&E slides, 5 mice per group
Experimental: Lentiviral vectors were prepared for the full-length, mutation type and deletion type of FCHo1 and transferred to lung cancer model mouse in a non-invasive aerosol method. Then their anticancer effects were confirmed. Example 8 confirmed that the sites involved in FCHo1 cleavage in human cells were FCHo1^S570A and FCHo1^del563-564. Therefore, corresponding positions were confirmed in mouse FCHo1. It was confirmed that S570A corresponded to S554A and del563-564 corresponded to del544-545. […] Then, the anticancer effects thereof were compared. The results are illustrated in FIG. 25.
as §1

[7] = system: A549 cells; assay: Midbody formation in A549 cells expressing FCHo1 constructs (CLSM, MKLP1 staining); format: cell-based, human; details: A549 cells in mitosis, compared with wild-type FCHo1
Experimental: A549 cells were placed in 8-well chamber cover glasses or high-precision cover glasses and were fixed with 3% paraformaldehyde for 10 minutes at room temperature, permeabilized with 0.5% TRITON® X-100 (Sigma-Aldrich) for 5 min, blocked for 30 minutes. Then, the cells were incubated with primary or secondary antibodies in blocking solution (PBS with 0.1% saponin and 3% BSA). Alexa Fluor 647 conjugated anti-rabbit secondary antibody and an oxygen scavenging system (0.5 mg/ml glucose oxidase, 40 μg/ml catalase, 10% glucose, pH 7.4) were used for stochastic optical reconstruction microscopy (dSTORM) imaging. Before imaging, 30 mM mercaptoethylamine ([…]; Sigma) was added to obtain a final thiol concentration of 10-200 mM. All dSTORM and SIM images were obtained from Carl Zeiss ELYRA PS.1 (super-resolution microscopy), and all CLSM images were obtained from the Carl Zeiss LSM710 (confocal laser scanning microscope). […]
In the analysis using the synchronization method, the cells were stained with MKLP1 antibody for the central spindle or midbody type analyses. The rates of cells in anaphase (central spindle) and telophase (midbody) were quantified via CLSM images: FCHo1 siRNA (n=318), wt FCHo1 (n=702), FCHo1 Δ563-564 (n=756) and FCHo1 Δ531-589 (n=1952). […]

T1 sequence (P31749 whole entry): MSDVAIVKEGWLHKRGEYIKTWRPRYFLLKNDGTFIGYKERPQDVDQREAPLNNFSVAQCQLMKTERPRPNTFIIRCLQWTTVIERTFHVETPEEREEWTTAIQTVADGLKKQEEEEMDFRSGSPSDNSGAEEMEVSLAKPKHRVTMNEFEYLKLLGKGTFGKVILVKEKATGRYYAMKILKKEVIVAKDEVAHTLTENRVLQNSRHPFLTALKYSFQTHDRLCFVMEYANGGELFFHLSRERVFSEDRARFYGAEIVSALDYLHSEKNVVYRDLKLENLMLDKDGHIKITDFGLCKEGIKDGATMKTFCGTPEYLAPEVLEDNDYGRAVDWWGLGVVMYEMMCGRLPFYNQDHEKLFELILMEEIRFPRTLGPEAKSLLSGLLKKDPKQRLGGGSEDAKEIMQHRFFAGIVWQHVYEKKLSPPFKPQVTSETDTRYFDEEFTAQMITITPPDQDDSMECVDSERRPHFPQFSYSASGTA

Molecule: 560-567: peptide derived from the FCHo1 amino acid sequence, residues 560-567 (PPRRLRSR; UniProt O14526 560-567, looked up, fragment)
- inhibitory effect on cell growth [1]: inhibitory effects on the cell growth

Molecule: CC(C)C[C@@H](C=O)NC(=O)[C@H](CC(C)C)NC(=O)[C@H](CC(C)C)NC(=O)OCc1ccccc1 [MG132] (Cbz-Leu-Leu-Leu-aldehyde)
- cleaved FCHo1 protein (immunoblot) [2]: completely disappeared

Molecule: PPRRLRSRKVSC [560-571, PPRRLRSRKVSC]
- absorption into a cell [3]: increase in absorption into a cell in a concentration-dependent manner

- Akt1 binding affinity [4]: significantly increased
Molecule: RRLRSRKVSC (FCHo1 fragment) [562-571]
- inhibitory effect on cell growth [1]: inhibitory effects on the cell growth

Molecule: shFCHo1: shRNA acting on mouse FCHo1, SEQ ID NO: 2 (GAGAGAACACCAGCCAGAAUCUCUUCUGGCUGGUGUUCUCUC; hairpin, further chemistry not given here)
- FCHo1 inhibitory effect [5]: most significant FCHo1 inhibitory effect
- No. of Adenocarcinoma [6]: 0.20 ± 0.45
- No. of Adenoma [6]: 0.60 ± 0.55
- No. of hyperplasia foci [6]: 0.60 ± 0.55**^,#

B1: Δ563-564: human FCHo1 with 563-564aa deleted (MMP-9 cleavage site), expressed in A549 cells (protein)
chain: MSYFGEHFWGEKNHGFEVLYHSVKQGPISTKELADFIRERATIEETYSKAMAKLSKLASNGTPMGTFAPLWEVFRVSSDKLALCHLELTRKLQDLIKDVLRYGEEQLKTHKKCKEEVVSTLDAVQVLSGVSQLLPKSRENYLNRCMDQERLRRESTSQKEMDKAETKTKKAAESLRRSVEKYNSARADFEQKMLDSALRFQAMEETHLRHMKALLGSYAHSVEDTHVQIGQVHEEFKQNIENVSVEMLLRKFAESKGTGREKPGPLDFEAYSAAALQEAMKRLRGAKAFRLPGLSRREREPEPPAAVDFLEPDSGTCPEVDEEGFTVRPDVTQNSTAEPSRFSSSDSDFDDEEPRKFYVHIKPAPARAPACSPEAAAAQLRATAGSLILPPGPGGTMKRHSSRDAAGKPQRPRSAPRTSSCAERLQSEEQVSKNLFGPPLESAFDHEDFTGSSSLGFTSSPSPFSSSSPENVEDSGLDSPSHAAPGPSPDSWVPRPGTPQSPPSCRAPPPEARGIRAPPLPDSPQPLASSPGPWGLEALAGGDLMPAPADPTAREGLAAPPRRSRKVSCPLTRSNGDLSRSLSPSPLGSSAASTALERPSFLSQTGHGVSRGPSPVVLGSQDALPIATAFTEYVHAYFRGHSPSCLARVTGELTMTFPAGIVRVFSGTPPPPVLSFRLVHTTAIEHFQPNADLLFSDPSQSDPETKDFWLNMAALTEALQRQAEQNPTASYYNVVLLRYQFSRPGPQSVPLQLSAHWQCGATLTQVSVEYGYRPGATAVPTPLTNVQILLPVGEPVTNVRLQPAATWNLEEKRLTWRLPDVSEAGGSGRLSASWEPLSGPSTPSPVAAQFTSEGTTLSGVDLELVGSGYRMSLVKRRFATGMYLVSC
modifications: Fcho1 delta563-564
notes: human FCHo1 with 563-564aa deleted (MMP-9 cleavage site), expressed in A549 cells
- midbody formation [7]: inhibited the midbody formation
